US6852687B2, “Method for inhibiting apoptosis” (Sucampo AG, priority 2001, dated 2005)

What was measured:
[1] = test system: Conjunctival epithelial cell line CCL-20.2; assay: Caspase-3 activity of conjunctival epithelial cells incubated in serum-free medium (Z-DEVD-AFC fluorescence); type: cell-based; settings: for caspase-3 activity compared with the control group: serum-free, 24 hours, n=3
Procedure: (§1) Conjunctival epithelial cell line CCL-20.2 (obtained from American Type Culture Collection) was incubated in serum-containing medium 199 (Gibco) until 60-70% of confluent. The cells were washed with a serum-free medium and were resuspended in serum-free medium 199 containing albumin 1 mg/ml or serum-free medium 199 containing no albumin. The cells were then incubated for 24 hours and collected.
The caspase-3 activities of the collected cells were determined. The cells were lysed in a buffer solution (50 mM HEPES, 1 mM dithiothreitol and 0.1 mM EDTA (pH7.4)) containing 0.1% CHAPS (3-[(3-cholamidopropyl) dimethylammonio]-2-hydroxy-1-propanesulfonic acid) and were centrifuged to collect the supernatant. The caspase activity in the supernatant was determined with 0.1 mM fluorescence substrate (Z-DEVD-AFC) by means of fluorescence intensity measurement(em:505 nm, ex:400 nm) (n=4).
Conjunctival epithelial cell line CCL-20.2 (obtained from American Type Culture Collection) was incubated in serum-containing medium 199 (Gibco) until 70-80% of confluent. The cells were washed with serum-free medium and resuspended in serum-free medium 199 containing albumin 3 mg/ml; albumin 3 mg/ml+EGF10 ng/ml; albumin 3 mg/ml+vitamin A 0.1 μg/ml; or albumin 3 mg/ml+EGF10 ng/ml+vitamin A 0.1 μg/ml. […]
The caspase-3 activities of the collected cells were measured. […] The caspase activity in the supernatant was determined with 0.1 mM fluorescence substrate (Z-DEVD-AFC) by means of fluorescence intensity measurement(em:505 nm, ex:400 nm) (n=3). […]
The caspase-3 activities of the collected cells were measured. […] The caspase activity in the supernatant was determined with 0.1 mM fluorescence substrate (Z-DEVD-AFC) by means of fluorescence intensity measurement (em:505 nm, ex:400 nm) (n=3). […]
The caspase-3 activities of the collected cells were measured. […] The caspase activity in the supernatant was determined with 0.1 mM fluorescence substrate (Z-DEVD-AFC) by means of fluorescence intensity measurement (em: 505 nm, ex: 400 nm) (n=3).

[2] = test system: Conjunctival epithelial cell line CCL-20.2; assay: DNA fragmentation (Cell Death Detection ELISAPLUS); type: cell-based; settings: Example 1; albumin 1 mg/ml in serum-free medium 199, 24 hours, n=4; measured at 405 nm; control without albumin 0.111 ± 0.018
Procedure: as §1
DNA fragmentation was determined with the Cell Death Detection ELISAPLUS (Roche Diagnostics Corporation, Basel, Switzerland). 2×10^4 cells were lysed with 0.1 ml of buffering solution and centrifuged to collect the supernatant. The obtained supernatant as well as positive and background controls, each in the amount of 20 μl, was respectively added to a plate coated with streptavidin. After adding an immunologic reagent (incubation buffer: antihistone-biotin: anti-DNA-POD=18:1:1) 80 μl to each plate, it was coated with a film and shaken at 300 rpm for 2 hours at room temperature. Then the plate was washed with incubation buffer 250-300 μl for 3 times. After adding substrate (ABTS) solution 100 μl to the plate, it was shaken at 250 rpm for 10-20 minutes at room temperature. The measurement was 405 nm (reference wavelength 492 nm)(n=4).

albumin
Caspase-3 activity mean ± S.E. ([1]; Example 1, albumin 1 mg/ml in serum-free medium 199, 24 hours, n=4, control without albumin 0.744 ± 0.246): 0.510 ± 0.191 n mol/hr/mg protein | caspase-3 activity compared with the control group ([1]; Example 2, FIG. 1, albumin 3 mg/ml, EGF 10 ng/ml, vitamin A 0.1 μg/ml): significantly lower | caspase-3 activity compared with the control group ([1]; Example 3, FIG. 2, albumin 1 mg/ml, TGFα 10 ng/ml, TGFβ 10 ng/ml): significantly lower | DNA fragmentation mean ± S.E. [2]: 0.096 ± 0.047
